Laboratory results from patent US11007155B2, “Method for producing a sea urchin extract enriched with 1,4-polyhydroxylated naphthoquinones with antimicrobial and antioxidant activity” (Universidad Técnica Federico Santa María, priority 2016, dated 2021).
≈ marks a conversion by molar mass, not a printed value. Read-outs that look alike come from different tables or passages of the source. Each block holds one compound with its values, some of them ahead of it.

Experiments:
[1] = DPPH radical capture assay (antioxidant activity)
Excerpt: The antioxidant activity of EqA is dependent on the concentration of the pigment, the pH and the concentration of calcium. In the absence of calcium, the antioxidant activity is observed only at alkaline pH, but in the presence of calcium, the antioxidant activity is observed at alkaline pH and neutral pH, by the formation of stable semiquinone-calcium complexes (Levedeb et al., Archives of Biochemistry and Biophysics (2003) 413: 191-198). The invention is illustrated in the following examples:
The antioxidant activity of the purified extract and equinochrome A was evaluated by the DPPH radical capture assay (2, 2-diphenyl-1-picryihydracil) (Shankarlal et al., (2011) Am-Euras, J. Sci. Res. 6:178-181).

E. coli = assay: Antibacterial activity (MIC) against clinical isolates; assay type: cell-based; conditions: Escherichia coli
Excerpt: (§1) In order to test the antibiotic activity of these compounds, the inventors studied the antibacterial activity, measured as minimum inhibitory concentration (MIC), of the black sea urchin (Tetrapygus niger) extract enriched in equinochrome A (85% purity) and the purified EqA.

Klebsiella oxytica = assay: as above; assay type: cell-based; conditions: resistant to ampicillin
Excerpt: as §1

Klebsiella pneumoniae = assay: as above; assay type: cell-based; conditions: resistant to ampicillin, aztreonam, cephalothin, cefepime, cefotaxime, ceftazidime
Excerpt: as §1

Pseudomona aeruginosa = assay: as above; assay type: cell-based
Excerpt: as §1

S. aureus = assay: as above; assay type: cell-based; conditions: Staphylococcus aureus, resistant to penicillin
Excerpt: as §1

[2] = Storage stability of the product; assay type: physicochemical; conditions: stored at −20° C
Excerpt: The process of the invention begins with spawning, which is induced by injection of KCl (0.5 M) into the perivisceral coelom. The induced urchin females are deposited on a smaller diameter vessel, which contains filtered and sterile seawater, where the eggs are received. The collected eggs are filtered, preferably using a fine sieve of pore size 1/32 inches (0.079375 centimeters) to remove impurities. Afterwards it is washed with filtered and sterile seawater. The excess water is subsequently removed by decanting the eggs. Then the eggs are dried at 60-80° C. for 24-72 hours, and are ground to a fine powder, which is cleaned by passing through a sieve of pore size 1/120 inches (0.021 centimeters). The product is then extracted by mixing the powder with methanol or ethanol at a proportion of 1:30 v/v under constant agitation. It is further filtered to remove the egg debris and evaporated under vacuum at 55° C. to 1/10 of the initial volume. The resulting extract is purified by chromatography with a C18 RP column, elution with 30-40% methanol to extract mainly spinochrome E, and finally an elution with 100% ethanol for the extraction of EqA.

- EC50 [1]: 100 µM
SMILES: Cc1c(C)c2c(c(C)c1O)CC[C@@](C)(CCC[C@H](C)CCC[C@H](C)CCCC(C)C)O2 [α-tocoferol, reference compound]

- MIC (E. coli; pH 5, pH 5, hemocultivo isolate, antibiotic resistance —): 32 µg/mL (≈ 120 µM)
- MIC (E. coli; pH 5, pH 5, hemocultivo isolate, resistant to ampicillin, chloramphenicol, cotrimoxazole): 32 µg/mL (≈ 120 µM)
- MIC (E. coli; pH 5, pH 5, urine isolate, resistant to ampicillin, aztreonam, cefepime, cefotaxime, ceftazidime, ciprofloxacin): 32 µg/mL (≈ 120 µM)
- MIC (E. coli; pH 7, pH 7, hemocultivo isolate, antibiotic resistance —): > 64 µg/mL
- MIC (E. coli; pH 7, pH 7, hemocultivo isolate, resistant to ampicillin, chloramphenicol, cotrimoxazole): > 64 µg/mL
- MIC (E. coli; pH 7, pH 7, urine isolate, resistant to ampicillin, aztreonam, cefepime, cefotaxime, ceftazidime, ciprofloxacin): 64 µg/mL (≈ 240 µM)
- MIC (Klebsiella oxytica; pH 5, hemocultivo isolate): 64 µg/mL (≈ 240 µM)
- MIC (Klebsiella oxytica; pH 7, hemocultivo isolate): > 64 µg/mL
- MIC (Klebsiella pneumoniae; Klebsiella pneumoniae, pH 5, urine isolate, ertapenem, nitrofurantoin, read-out: MIC): 64 µg/mL (≈ 240 µM)
- MIC (Klebsiella pneumoniae; Klebsiella pneumoniae, pH 7, urine isolate, ertapenem, nitrofurantoin, read-out: MIC): > 64 µg/mL
- MIC (Klebsiella pneumoniae; pH 5, hemocultivo isolate, ciprofloxacin, chloramphenicol, colistin, cotrimoxazole, gentamicin): 64 µg/mL (≈ 240 µM)
- MIC (Klebsiella pneumoniae; pH 5, urine isolate, nitrofurantoin): 64 µg/mL (≈ 240 µM)
- MIC (Klebsiella pneumoniae; pH 7, hemocultivo isolate, ciprofloxacin, chloramphenicol, colistin, cotrimoxazole, gentamicin): >64 µg/mL
- MIC (Klebsiella pneumoniae; pH 7, urine isolate, nitrofurantoin): >64 µg/mL
- MIC (Pseudomona aeruginosa; pH 5, pH 5, aspirado traqueal isolate, resistant to ampicillin, aztreonam, cefepime, ceftazidime, imipenem, meropenem): 32 µg/mL (≈ 120 µM)
- MIC (Pseudomona aeruginosa; pH 5, pH 5, aspirado traqueal isolate, resistant to ampicillin, aztreonam, ceftazidime, imipenem, meropenem): 64 µg/mL (≈ 240 µM)
- MIC (Pseudomona aeruginosa; pH 5, pH 5, aspirado traqueal isolate, resistant to ampicillin, ciprofloxacin, imipenem, meropenem): 32 µg/mL (≈ 120 µM)
- MIC (Pseudomona aeruginosa; pH 5, pH 5, cateter isolate, resistant to ampicillin, aztreonam, cefepime, ceftazidime, imipenem, meropenem): 32 µg/mL (≈ 120 µM)
- MIC (Pseudomona aeruginosa; pH 5, pH 5, hemocultivo isolate, resistant to cefepime, ceftazidime, ciprofloxacin, gentamicin): 32 µg/mL (≈ 120 µM)
- MIC (Pseudomona aeruginosa; pH 7, pH 7, aspirado traqueal isolate, resistant to ampicillin, aztreonam, cefepime, ceftazidime, imipenem, meropenem): > 64 µg/mL
- MIC (Pseudomona aeruginosa; pH 7, pH 7, aspirado traqueal isolate, resistant to ampicillin, aztreonam, ceftazidime, imipenem, meropenem): > 64 µg/mL
- MIC (Pseudomona aeruginosa; pH 7, pH 7, aspirado traqueal isolate, resistant to ampicillin, ciprofloxacin, imipenem, meropenem): > 64 µg/mL
- MIC (Pseudomona aeruginosa; pH 7, pH 7, cateter isolate, resistant to ampicillin, aztreonam, cefepime, ceftazidime, imipenem, meropenem): > 64 µg/mL
- MIC (Pseudomona aeruginosa; pH 7, pH 7, hemocultivo isolate, resistant to cefepime, ceftazidime, ciprofloxacin, gentamicin): > 64 µg/mL
- MIC (S. aureus; pH 5, pH 5, hemocultivo isolate (1st, r13)): 8 µg/mL (≈ 30.1 µM)
- MIC (S. aureus; pH 5, pH 5, hemocultivo isolate (2nd, r14)): 8 µg/mL (≈ 30.1 µM)
- MIC (S. aureus; pH 5, pH 5, hemocultivo isolate (3rd, r15)): 8 µg/mL (≈ 30.1 µM)
- MIC (S. aureus; pH 5, pH 5, hemocultivo isolate, oxacillin, erythromycin, clindamycin, ciprofloxacin): 32 µg/mL (≈ 120 µM)
- MIC (S. aureus; pH 5, pH 5, isolate from tracheal aspirate): 8 µg/mL (≈ 30.1 µM)
- MIC (S. aureus; pH 7, pH 7, hemocultivo isolate (1st, r13)): 32 µg/mL (≈ 120 µM)
- MIC (S. aureus; pH 7, pH 7, hemocultivo isolate (2nd, r14)): 32 µg/mL (≈ 120 µM)
- MIC (S. aureus; pH 7, pH 7, hemocultivo isolate (3rd, r15)): 32 µg/mL (≈ 120 µM)
- MIC (S. aureus; pH 7, pH 7, hemocultivo isolate, oxacillin, erythromycin, clindamycin, ciprofloxacin): 32 µg/mL (≈ 120 µM)
- MIC (S. aureus; pH 7, pH 7, isolate from tracheal aspirate): 32 µg/mL (≈ 120 µM)
- EC50 [1]: 13 µM
- storage stability [2]: high stability for months
SMILES: CCc1c(O)c(O)c2c(c1O)C(=O)C(O)=C(O)C2=O [EqA, 6-ethyl-2,3,5,7,8-pentahydroxy-1,4-naphthoquinone]
- antioxidant activity compared with reference antioxidants [1]: greater than the antioxidant activities of α-tocopherol and ascorbic acid

- EC50 [1]: 45 µM
SMILES: O=C1O[C@H]([C@@H](O)CO)C(O)=C1O [ascorbic acid, reference compound]
